Measurements as given in patent publication US10849976B2, “Compositions and methods for protecting saponin activity” (SarTec Corporation, priority 2016, dated 2020).
Like-named read-outs stand apart in the source and are kept apart here.

System: glucose oxidase
Source text: In addition, a saponin molecule has a few to several glucose units bonded to it, depending on the exact plant from which the saponin is extracted. Each glucose unit bonded to the saponin may have up to four more hydroxy (—OH) groups attached and pointing outward from the glucose ring into the water solution. Glucose concentrations can be measured by an assay that depends on glucose oxidase acting upon glucose. However, glucose oxidase is prevented from acting upon glucose if borate is effectively bound to glucose. Thus, observing a declining amount of glucose as measured using a glucose oxidase based assay is indicative of borate binding to glucose, which in turn, serves as another indication of the efficacy of the saponin-protective agent.
A standard glucose solution was prepared by weighing about 0.9 g of glucose and 0.450 g of NaCl into a 500.0 mL volumetric flask. Reverse osmosis water was added while mixing the reagents to reach the 500 mL total volume. Next, a 40.0 mL portion of the standard glucose solution was added to a 50 mL vial and 0.106 g of sodium borate was successively added resulting in a molar ratio of borate:glucose in a range of 1:1 to 6:1. Glucose levels were measured using a OneTouch Ultra 2 blood glucose meter.
The glucose level for the standard glucose/saline solution was taken both before and after the borate-containing glucose solutions were measured for glucose concentration.

O=BOB(O)OB(O)OB=O [Sodium Borate, sodium borate]
Protection of glucose from oxidation by glucose oxidase (3:1 borate:glucose molar ratio): effectively entirely protected | Glucose Meter Reading (Borate:Glucose molar ratio 1:1, 0.106 sodium borate added): 106 mg/dL | Glucose Meter Reading (Borate:Glucose molar ratio 2:1, 0.212 sodium borate added): 38 mg/dL | Glucose Meter Reading (Borate:Glucose molar ratio 3:1, 0.318 sodium borate added): “Low Glucose < 20 mg/dL” | Glucose Meter Reading (Borate:Glucose molar ratio 6:1, 0.636 sodium borate added): “Error 4”
